According to US20070219243A1, “Method for improving the pharmacokinetics of HIV integrase inhibitors” (priority 2005, published 2007):
Entries after “also recorded” stand apart in the source; their conditions may differ.

How the values were obtained:
[1] = Example 7: food effect on pharmacokinetics of Compound 1 in healthy Japanese males; format: in vivo; settings: male, human, plasma, po, 400 mg, single oral dose 400 mg, Mean ± SD (n = 6); for half-life: read-out: t1/2 λz (converted)
Method: Subjects in the 400 mg fasted cohort received an additional 400 mg dose with breakfast after a washout period (generally a minimum of ten days after the initial administration). The interval of ten days between the two doses was considered appropriate for eliminating any within-subject carryover effects. […] Doses were administered at similar times for each subject in each treatment period. […] Plasma samples were isolated from healthy subjects administered with Compound 1. The plasma samples were extracted by solid phase extraction using Empore™ Disk Plate (C8SD), and then measured by high-performance liquid chromatography/tandem mass spectrometry (LC/MS/MS) (HPLC model 2795 separations module from Waters; mass spectrometer model AP14000 from MDS SCIEX). Ionization and detection were performed with electrospray ionization and positive ion detection with multiple reaction monitoring, respectively. […] To 50 μL of plasma samples spiked with […] each of 90% acetonitrile and 20 mmol/L ammonium formate-formic acid buffer (pH 3.0)/acetonitrile (10:90, v/v), 10 μL each of internal standard solution was added. To these samples, 200 μL of 0.1% formic acid in 10% acetonitrile was added. These solutions were then mixed for 10 seconds and centrifuged at 10,000 rpm for 5 minutes at 4° C. A 250 μL aliquot of the supernatant was added to a Empore™ Disk Plate (C8SD) (conditioned with 150 μL of acetonitrile and 200 μL of 0.1% formic acid in this order). The plate was washed twice with 200 μL of 0.1% formic acid in 20% acetonitrile and eluted twice with 100 μL of 0.1% formic acid in 80% acetonitrile (200 μL in total). To the eluates, 200 μL of 0.1% formic acid was added and mixed. Then, 10 μL of each solution was injected into the LC/MS/MS system and analyzed.

[2] = target: HIV-1 integrase (Human immunodeficiency virus type 1 group M subtype B, UniProt P04585); settings: after 10 days of monotherapy; through Day 21
[3] = system: HIV-1; assay: Example 2: exposure-response (Emax model) and inhibitory quotient; format: in vivo; settings: simple Emax model on Ctau
[4] = in vivo
Method: Pharmacokinetic (PK) blood draws were performed on days 7, 17, and 27.

[5] = Example 1: pharmacokinetics of Compound 1 alone and with RTV in healthy subjects; format: in vivo, human; settings: for Ctau / Cmax / half-life / AUC: Compound 1 in plasma; for AUC: N = 12, read-out: AUC (AUCtau)
Excerpt: The study was an open-label, fixed-sequence, crossover, pharmacokinetic study with 12 subjects. The subjects were healthy males and non-pregnant, nonlactating females between 18 and 45 years of age, inclusive. The duration of the study was 20 days, with Period 1 of Days 1 to 10 and Period 2 of days 11 to 20. Follow-up contact was on day 27.

[6] = Example 7: safety of single 400 mg dose; format: in vivo, human; settings: single oral 400 mg dose, fasted and fed, healthy Japanese males
Method: The subjects were admitted to the medical institution in the afternoon on the day before administration (“Day-1”). […] The subjects were discharged the day after administration (“Day 2”). Thus, the subjects were hospitalized for a total of three days. Follow up assessment for safety was performed 6 to 8 days after administration (“Days 7 to 9”).

[7] = Example 2: safety in subjects infected with HIV-1; format: in vivo, human
Method: Safety: Adverse events, vital signs, electrocardiogram, ophthalmologic examination, and clinical laboratory tests were evaluated for safety. Safety: The proportion of subjects with adverse events was summarized by treatment, system organ class and preferred term for treatment-emergent adverse events, treatment-related adverse events, serious adverse events, and adverse events leading to study drug discontinuation. Adverse events were coded using the Medical Dictionary for Regulatory Activities (MedDRA®) version 8.1. […] Laboratory results were expressed on the original measurement scale and in terms of the toxicity grade. Changes from baseline in quantitative laboratory tests were summarized by visit.

[8] = Example 1: multiple-dose safety of Compound 1 alone and with RTV; format: in vivo, human
Method: The single-dose and multiple-dose pharmacokinetics of Compound 1 were also determined. The multiple-dose safety of Compound 1 administered alone and with RTV was also determined. Safety: Safety was evaluated by assessment of clinical laboratory tests at baseline and at various time points during the study; periodic physical examinations, including vital signs; and documentation of adverse events throughout the study. Safety: No statistical inference was performed for safety data in this pharmacokinetic study.

[9] = Example 3: pharmacokinetics of Compound 1 and RTV at a range of RTV doses; settings: for Ctau / AUC / Cmax / half-life: Compound 1 in plasma, mean (CV %); for IQ: based on protein binding-adjusted IC50 in PBMCs; for AUC / Cmax / half-life: both, human, plasma, oral; for AUC: AUCtau
[10] = Example 5: drug-drug interaction of zidovudine and Compound 1/r; settings: human, in vivo
Excerpt: Zidovudine is a NRTI used in HIV patients.
PK parameters were estimated using WinNonlin™ 5.0.1 (Pharsight Corporation, Mountain View, Calif., USA).

[11] = both sexes, human, plasma, oral, 100 mg, Day 10, Compound 1 100 mg twice daily alone, mean (% CV)
[12] = both sexes, human, plasma, oral, Day 11, Compound 1 100 mg twice daily + single dose RTV 100 mg, mean
[13] = both sexes, human, plasma, oral, Day 20, Compound 1 100 mg + RTV 100 mg twice daily, mean
[14] = 200 mg of Compound 1 twice-daily, 6 subjects
[15] = healthy subjects, Compound 1 100 mg twice daily alone, or with RTV 100 mg twice daily
[16] = Compound 1 125 mg + 20 mg RTV QD
[17] = Compound 1 125 mg + 50 mg RTV QD
[18] = Compound 1 125 mg + 100 mg RTV QD
[19] = Compound 1 125 mg + 200 mg RTV QD

COc1cc2c(cc1Cc1cccc(Cl)c1F)c(=O)c(C(=O)O)cn2[C@H](CO)C(C)C [Compound 1, 6-(3-chloro-2-fluorobenzyl)-1-[(2S)-1-hydroxy-3-methylbutan-2-yl]-7-methoxy-4-oxo-1,4-dihydroquinoline-3-carboxylic acid]
AUC(0-inf) ([1]; Fasted): 1450 ± 308 ng·h/mL
Cmax ([1]; Fasted): 264 ± 78 ng/mL
Tmax ([1]; Fasted): 2.5 ± 1.2 h
half-life ([1]; Fasted): 5.4 ± 1 h
AUC(0-inf) ([1]; Fed): 3940 ± 1070 ng·h/mL
Cmax ([1]; Fed): 903 ± 391 ng/mL
Tmax ([1]; Fed): 2.3 ± 1 h
half-life ([1]; Fed): 3.2 ± 0.3 h
HIV-1 integrase mutations corresponding to Compound 1 resistance [2]: no subject developed HIV-1 integrase mutations; also recorded: No Compound 1 resistance mutations were detected
Emax [3]: 2.32 log10 copies/mL reduction from baseline
PK (Cmax, AUCtau, Ctau) during co-administration vs alone [4]: unaffected
mean steady-state exposure (AUCtau, Day 10) lower compared with mean exposure (AUCinf) after a single dose (Day 1) ([5]; Compound 1 100 mg alone, indicating autoinduction of metabolism): approximately 20%
Ctau ([5]; end of dosing interval, Day 1, Compound 1 100 mg alone, mean (% CV)): 19.2 (52.5) ng/mL
Ctau ([5]; Day 10, Compound 1 100 mg twice daily alone, mean (% CV)): 12.4 (63.7) ng/mL
Ctau ([5]; Day 11, Compound 1 100 mg twice daily + single dose RTV 100 mg, mean): 543.3 ng/mL
Ctau ([5]; Day 20, Compound 1 100 mg + RTV 100 mg twice daily, mean): 1035.6 ng/mL
Cmax ([5]; both sexes, human, plasma, oral, 100 mg, Day 1, single dose Compound 1 100 mg alone, mean (% CV)): 200 ng/mL
half-life ([5]; both sexes, human, plasma, oral, 100 mg, Day 1, single dose Compound 1 100 mg alone, median (min, max)): 3.1 h
half-life ([5]; both sexes, human, plasma, oral, 100 mg, Day 10, Compound 1 100 mg twice daily alone, steady state, median (min, max)): 3.5 h
Cmax [5, 11]: 164 ng/mL
AUC [5, 11]: 719 ng·h/mL
AUC(0-inf) ([5]; both sexes, human, plasma, oral, 100 mg, read-out: AUC (AUCinf)): 908 ng·h/mL
Cmax [5, 12]: 795 ng/mL
AUC [5, 12]: 6170 ng·h/mL
half-life ([5]; both sexes, human, plasma, oral, Day 11, Compound 1 100 mg twice daily + single dose RTV 100 mg, median): 18.2 h
half-life ([5]; both sexes, human, plasma, oral, Day 20, Compound 1 100 mg + RTV 100 mg twice daily, steady state, median): 9.5 h
Cmax [5, 13]: 1830 ng/mL
AUC [5, 13]: 14300 ng·h/mL
Safety and tolerability [6]: safe and well tolerated
Subjects with treatment-emergent Grade 3 or 4 laboratory abnormalities ([7]; 50 mg of Compound 1+RTV once-daily, 6 subjects): 1 subject
Subjects with treatment-related fatigue [7, 14]: 2 subjects
Subjects with treatment-related nausea [7, 14]: 2 subjects
Subjects with treatment-emergent Grade 3 or 4 laboratory abnormalities ([7]; 400 mg of Compound 1 twice-daily, 6 subjects): 1 subject
Tolerability ([7]; all dose levels, 10 days, HIV-1 infected subjects): generally well tolerated
Subjects with treatment-emergent AEs considered related to study drugs [8, 15]: 2 of 12
Subjects with treatment-emergent adverse events [8, 15]: 4 of 12
Tolerability ([8]; oral, 100 mg twice daily, Compound 1 up to 20 days, with RTV 100 mg twice daily up to 10 days): well tolerated
Ctau [9, 16]: 73.8 (60.2) ng/ml
Ctau [9, 17]: 251 (27.7) ng/ml
Ctau [9, 18]: 380 (39.9) ng/ml
Ctau [9, 19]: 410 (26.0) ng/ml
IQ [9, 16]: 10.3
IQ [9, 17]: 35.0
IQ [9, 18]: 53.0
IQ [9, 19]: 57.2
AUC ([9]; Compound 1 125 mg + 20 mg RTV QD, after a meal): 10200 ng·h/mL
AUC [9, 17]: 15800 ng·h/mL
AUC [9, 18]: 20300 ng·h/mL
AUC [9, 19]: 20600 ng·h/mL
Cmax [9, 16]: 1370 ng/mL
Cmax [9, 17]: 1560 ng/mL
Cmax [9, 18]: 1830 ng/mL
Cmax [9, 19]: 2030 ng/mL
half-life [9, 16]: 4.34 h
half-life [9, 17]: 9.52 h
half-life [9, 18]: 11.5 h
half-life [9, 19]: 14.3 h
Half-life (48 hour PK profile) [10]: supporting once daily dosing
